# Like-named read-outs stand apart in the source and are kept apart here.
# Key:
# DSS-induced colitis [1] = experiment: Dose-response in the Mouse Dextran Sulfate (DSS) model; type: in vivo
# Description: To determine the dose-response relationship of Compound A in the DSS Mouse Model, the following procedure was used.
# Experimental conditions and statistical analyses were the same as the Mouse Dextran Sulfate IBD Model, except four groups of mice (n=8-10/group) were used. Animals were dosed orally with either Compound A (3, 10 or 30 mg/kg) or vehicle alone. In addition, the following procedure was introduced to evaluate the histology in the animals:
# 5-6 slices/segment with 15-18 total pieces/colon
# Score for extent of damage: 0=1-25% involvement, 1=26-50% involvement,
# 0=intact crypt, 1=loss of 1/3 crypt, 2=loss of 2/3 crypt, 3=loss of entire crypt with surface epithelium intact, 4=loss of entire crypt and erosion of surface epithelium
# 0=normal, 1=focal inflammatory cell infiltrate including PMNs, 2=inflammatory cell infiltration, gland dropout and crypt abscess, 3=mucosal ulceration
# Single, evaluator (qualified pathologist) blinded to the treatment conditions.
# DSS-induced colitis [2] = experiment: Mouse Dextran Sulfate (DSS) IBD model; type: in vivo, Swiss-Webster mice
# Description: Another model used for screening candidate IBD-treating compounds is the Dextran Sulfate ("DSS") model. Similar to the TNBS model, DSS induced colitis is widely used as a screening tool for IBD therapeutics. When administered orally, DSS induces IBD-like symptoms in Swiss-Webster mice. This model is used to determine the effectiveness of compounds of this invention when such compounds are administered orally (p.o.)
# Individually housed 30-40 g male Swiss-Webster mice (B & K Universal, Fremont, Calif.) received 3% DSS (Sigma Chemicals, St. Louis, Mo.) in their drinking water for 7 days. All animals received food and water ad libitum.
# Two groups of mice were dosed orally with either Compound A in a dosing vehicle (1% methyl cellulose, dose range of 10 mg/kg to 30 mg/kg) or dosing vehicle alone (control).
# Clinical signs of colitis were assessed by a disease activity index ("DAI") consisting of changes in stool characteristics, fecal occult bleeding and body weight loss. The DAI is very similar to the Crohn's Disease Activity Index used in clinical trials to evaluate new agents to prevent/treat IBD. The DAI data were analyzed using Proc Anova in SAS with a Bonferoni post-hoc analysis, and Model 108 in WinNonlin™ (Professional Version 1.5, Scientific Consulting, Apex, NC) for the ED50 and Emax values. The wet weight and myeloperoxidase ("MPO") data (collected only on Day 7) were analyzed by Proc TTest in SAS. MPO is a marker for neutrophil infiltration.
# Stool Characteristic: 0=normal, 2=loose and 4=diarrhea
# Fecal Occult Blood: 0=negative, 2=positive, 4=gross bleeding
# Two strips of colonic tissue/mouse
# MPO activity by spectrophotometric assay
# [3] = tested on: adjuvant induced arthritis; experiment: Rat adjuvant induced arthritis model of chronic inflammation; type: in vivo; conditions: Compound A 100 mg/kg po or dexamethasone 0.1 mg/kg, daily 7 days, vs adjuvant
# Description: Confirmation of the anti-inflammatory activity of Compound A was sought in another related biological test-the rat adjuvant induced arthritis model of chronic inflammation. This model was selected because almost all of the anti-IBD agents also show efficacy in standard arthritis models. In this model Compound A was tested at 100 mg/kg, po in a 1 % methyl cellulose suspension. On day 0 all animals received an injection of either Mycobacterium butyricum (100μL, 20 mg/mL in mineral oil) or mineral oil in the base of the tail. 14 days after this injection, rat paws were measured and all the rats were randomized into 3 treatment groups of 8. A control adjuvant group (group without further treatment), a group to be treated with dexamethasone (steroid reference) and a group to treated with Compound A. Rats received Compound A 100 mg/kg, po, or dexamethasone 0.1 mg/kg, op, daily until day 21 (7 days dosing). On day 21 rats were sacrificed. Paw measurements were taken after 5 and 7 days treatment.
# [4] = Absolute oral bioavailability (AUC oral vs IV, 20 mg/kg); type: in vivo, rats; conditions: rat, blood
# Description: Blood concentrations were determined at 0, 0.083, 0.15, 0.5, 1, 2, 4, 8, and 24 hours post-IV dose and 0, 0.5, 1, 2, 4 and 8 hours post-oral dose. Four animals were dosed orally and four animals were dosed intravenously.
# The blood samples were analyzed by HPLC. Detection was by UV at 262 nm. Responses were converted to concentrations by comparison to responses from calibration standards injected onto the column. The resulting concentrations were used to calculate the AUC.
# [5] = tested on: human brain cell aggregates; experiment: TNF-α induced apoptosis in human brain cell aggregates; type: cell-based; conditions: compound 1 hour prior to TNF-α, 48 h, read-out: lowest concentration shown to protect against TNF-α induced apoptosis
# Description: This test is used to evaluate the potential of Compound A to prevent TNF-α induced apoptosis.
# Compound A was evaluated in an in vitro model of TNF-α induced toxicity (see Pulliam et al. J. Neurosci. Res. 21:521-530 (1998)). In this model, human brain cell aggregates from fetal tissue were treated with TNF-α which caused an apoptotic cell death. Brain cell aggregates prepared from 1 brain were incubated for 10-12 days before experimentation. Aggregates were weighed out (100 mg/flask) and aliquoted into 10 mL flasks. TNF-α was used at a concentration of 1 ng. Compound A was added 1 hour prior to the TNF-α. Experiments included untreated brain aggregates, TNF-α-treated brain aggregates, TNF-α-+test compound treated aggregates and test compound treated aggregates. After TNF-α was added, aggregates were incubated for an additional 48 h. After this time, brain aggregates were centrifuged for 5 min at 500 rpm. The supernatant was removed and the pellet was lysed for determination of programmed cell death. (Boeringer Mannheim Cell Death Kit ELISA).
# [6] = Plasma concentration time course after oral administration; type: in vivo, rats
# [7] = PK parameter estimates, 30 mg/kg po (Table 1); type: in vivo, rats; conditions: additional series of bioavailability experiments
# Description: The bioavailability of compound N is depicted in FIG. 10 as well. |(NRTs Dosed 30 mg/kg po in 1% Methyl Cellulose, n = 3 rats/NRT)
smiles,measurement,setting,value
"CC(=O)Nc1ccc(C(=O)NC(C)(C)C)cc1 [Compound A, N-tert-butyl-4-acetamidobenzamide]","protective effect, significance by day",DSS-induced colitis [1]; oral,"statistically significant on days 3, 4, 5 and 7"
same,"DAI score, protective effect (in words)","DSS-induced colitis [1]; oral, 3, 10 or 30 mg/kg",marked dose-dependent protective effect
same,"DAI score, significance by dose","DSS-induced colitis [1]; oral, 3, 10 or 30 mg/kg",statistically significant at 30 mg/kg
same,"MPO values (in words), dose-response study","DSS-induced colitis [1]; oral, 3, 10 or 30 mg/kg",the protection was not statistically significant
same,"wet weight (in words), dose-response study","DSS-induced colitis [1]; oral, 3, 10 or 30 mg/kg",the protection was not statistically significant
same,MPO values (in words),DSS-induced colitis [2]; Day 7,the protection was not statistically significant
same,wet weight (in words),DSS-induced colitis [2]; Day 7,the protection was not statistically significant
same,protective effect against DSS-induced colitis,"DSS-induced colitis [2]; oral, 10 mg/kg to 30 mg/kg",showed protective effect against DSS-induced colitis
same,significance of protective effect by day,"DSS-induced colitis [2]; oral, 10 mg/kg to 30 mg/kg","statistically significant on days 3, 4, 5 and 7"
same,estimated ED50,"DSS-induced colitis [2]; oral, DSS model, WinNonlin",approximately 15 mg/kg
same,estimated Emax,"DSS-induced colitis [2]; oral, DSS model, WinNonlin",~80 % protection
same,inhibition of the inflammatory response,[3],significant inhibition of the inflammatory response (p<0.005)
same,bioavailability,"[4]; in rats, as restated, read-out: bioavailability",50%
same,bioavailability,"[4]; oral 20 mg/kg in 1% methyl cellulose vs IV 20 mg/kg in 75% PEG, read-out: absolute bioavailability",52%
same,minimal effective concentration,[5],0.01 µM
same,lower plasma levels in animals dosed 4 hours before TNBS,"[6]; > 6 hours after TNBS, vs dosing 1 hour before",approximately 30%
same,time after which plasma concentrations begin to decline,[6]; following oral administration,> 7 h
same,Tmax,"[6]; rat, plasma, following oral administration, read-out: time of peak plasma concentration",3 to 4 h
same,bioavailability (in words),[7],excellent bioavailability

# Source: patent US6194465A, “Benzamide therapeutics for the treatment of inflammatory bowel disease” (priority 1999, dated 2001)
